The values that follow come from ChEMBL document CHEMBL5634148, “Synthesis and evaluation of novel pleuromutilin derivatives targeting the 50S ribosomal subunit for antibacterial ability” (Eur J Med Chem, 2023).

≈ marks a conversion by molar mass, not a printed value. Calls of active or inactive are those of the source. The rule behind the calls is not given here.

Series [1] can be described thus: Toxicity in Wistar rat assessed as relative lungs weight at 2000 mg/kg, po measured after 14 days (reference value: 0.62 +/- 0.18 %). It is filed as organism-based. To be noted: in vivo, 336 h, time 14 day.
For series [2], the system named is Staphylococcus aureus. As to the kind of experiment: Antibacterial activity against methicillin-resistant Staphylococcus aureus infected in neutropenic Balb/c mouse model assessed as reduction in bacterial load in lungs at 40 mg/kg, iv measured after 5 days. In kind it is functional. To be noted: time 5 day.
A short description of series [3]: Toxicity in Wistar rat assessed as congestion in hepatic central vein at 2000 mg/kg, po measured for 14 days by H and E staining based analysis. As to conditions: in vivo, 336 h, time 14 day. In kind it is organism-based.
For series [4], the system named is Staphylococcus aureus. Description: Antibacterial activity against methicillin-resistant Staphylococcus aureus infected in neutropenic Balb/c mouse model assessed as reduction in inflammatory cell infiltration in lungs at 40 mg/kg, iv measured after 5 days. In kind it is functional, organism-based. As to conditions: time 5.0 day.
Series [5] relates to Staphylococcus aureus. Description: Bactericidal activity against methicillin-resistant Staphylococcus aureus ATCC 29213 incubated for 24 hrs by time kill assay. It is filed as functional, organism-based.
Series [6] relates to Staphylococcus epidermidis. As to the kind of experiment: Antibacterial activity against methicillin-resistant Staphylococcus epidermidis ATCC 51625 assessed as bacterial growth inhibition incubated for 18 to 24 hrs by NCCLS based assay. It is filed as functional. As to conditions: time 18-24 hrs.
A short description of series [7]: Cytotoxicity against human HepG2 cells assessed as cell viability at 200 uM incubated for 6 hrs by CCK8 assay relative to control. In kind it is toxicity, cell-based. As to conditions: read-out: Activity. Background: Formazan colour is commonly taken as a measure of viable cells.
Series [8] is described as follows: Toxicity in Wistar rat assessed as trembling at 2000 mg/kg, po measured for 24 hrs. To be noted: in vivo. In kind it is organism-based.
Series [9] can be described thus: Toxicity in neutropenic Balb/c mouse model infected with methicillin-resistant Staphylococcus aureus assessed as animal survival at 40 mg/kg, iv measured for 7 days. In kind it is organism-based. As to conditions: in vivo, 168 h, time 7 day.
For series [10], the system named is Staphylococcus aureus. As to the kind of experiment: Bactericidal activity against Staphylococcus aureus incubated for 24 hrs by time kill assay. It is filed as functional, organism-based.
Series [11] can be described thus: Toxicity in Wistar rat assessed as relative heart weight at 2000 mg/kg, po measured after 14 days (reference value: 0.36 +/- 0.03 %). It is filed as organism-based. As to conditions: in vivo, 336 h, time 14 day.
Series [12] can be described thus: Toxicity in Wistar rat assessed as necrosis of alveolar epithelial cells in lungs at 2000 mg/kg, po measured for 14 days by H and E staining based analysis. It is filed as organism-based. To be noted: in vivo, 336 h, time 14 day.
The nature of series [13]: Toxicity in Wistar rat assessed as food intake at 2000 mg/kg, po measured for 14 days. In kind it is organism-based. To be noted: in vivo, 336 h, time 14 day.

As a reminder, the MIC is the lowest concentration found to suppress growth. As for `C=C[C@]1(C)C[C@@H](OC(=O)CSc2ncnc(N(C)C)n2)[C@]2(C)[C@H](C)CC[C@]3(CCC(=O)[C@H]32)[C@@H](C)[C@@H]1O`, the Activity in series [1] was 0.53%; in the series with Staphylococcus aureus [2], 2.52 log10CFU/ml; in series [3] it was “Toxic”; in the series with Staphylococcus aureus [5] it was “Dose-Dependent Effect”; in [8], “Toxic”; in series [9] it was 70%. For the same molecule, the Activity result with Staphylococcus aureus [10] is “Dose-Dependent Effect”; in series [11], 0.34%; in [12] it was “Toxic”; in [13] it was “Toxic”. Also, the result with Staphylococcus aureus [4] was Active. For the same molecule, the MIC in [6] turned out to be 0.125 µg/mL (≈ 0.242 µM). Besides, the viability at 6 h, 200 µM in [7] came out at 60.2%.
